From ChEMBL document CHEMBL1201862, “PubChem BioAssay data set” (2004)
Active and inactive are the calls of the source.

Key:
[1] = target: T1, Ubiquitin-conjugating enzyme E2 N (Homo sapiens, UniProt P61088); type: functional;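 also: Dose-response confirmation in a TR-FRET assay detecting UBC13-driven polyubiquitin chain formation, inhibition measured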
T1 sequence (P61088 whole entry): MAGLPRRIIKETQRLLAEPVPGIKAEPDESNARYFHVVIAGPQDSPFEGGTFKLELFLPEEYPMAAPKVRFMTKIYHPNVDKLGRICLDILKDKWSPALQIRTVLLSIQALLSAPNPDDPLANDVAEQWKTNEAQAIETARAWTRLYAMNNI

[2] = Luminescence Cell-Based Dose Retest to Confirm Inhibitors of Cancer Stem Cells. [Related pubchem assays (depositor defined):AID2717, AID2721]; type: functional; settings: Homo sapiens
[3] = target: T2, Polyadenylate-binding protein 1 (Homo sapiens, UniProt P11940); test: MLLE binding blockers, Cy5 peptide tracer – biochemical, fluorescence polarization, Cy5-PAM2 peptide, secondary, miRNA deadenylation inhibitor project, dose response (AID 602260); type: functional; settings: read-out: IC50_Mean
[4] = target: T2, Polyadenylate-binding protein 1; test: MLLE domain peptide-binding blockers, IC50 – biochemical, fluorescence polarization, FITC-PAM2 peptide, dose response (AID 602259); type: functional; settings: read-out: IC50_Mean
[5] = target: FAD-linked sulfhydryl oxidase ALR (Homo sapiens, UniProt P55789); test: ALR-catalysed DTT oxidation blockers – biochemical, H2O2 detection, luminescence, cherry-pick, dose response (AID 493248)
[6] = target: T3, Leucine aminopeptidase (Plasmodium falciparum 3D7, UniProt Q8IL11); test: P. falciparum M17LAP inhibitors, primary screen, biochemical, fluorogenic H-Leu-NHMec substrate, 1536-well (AID 1619); type: functional
T3 sequence (Q8IL11 whole entry): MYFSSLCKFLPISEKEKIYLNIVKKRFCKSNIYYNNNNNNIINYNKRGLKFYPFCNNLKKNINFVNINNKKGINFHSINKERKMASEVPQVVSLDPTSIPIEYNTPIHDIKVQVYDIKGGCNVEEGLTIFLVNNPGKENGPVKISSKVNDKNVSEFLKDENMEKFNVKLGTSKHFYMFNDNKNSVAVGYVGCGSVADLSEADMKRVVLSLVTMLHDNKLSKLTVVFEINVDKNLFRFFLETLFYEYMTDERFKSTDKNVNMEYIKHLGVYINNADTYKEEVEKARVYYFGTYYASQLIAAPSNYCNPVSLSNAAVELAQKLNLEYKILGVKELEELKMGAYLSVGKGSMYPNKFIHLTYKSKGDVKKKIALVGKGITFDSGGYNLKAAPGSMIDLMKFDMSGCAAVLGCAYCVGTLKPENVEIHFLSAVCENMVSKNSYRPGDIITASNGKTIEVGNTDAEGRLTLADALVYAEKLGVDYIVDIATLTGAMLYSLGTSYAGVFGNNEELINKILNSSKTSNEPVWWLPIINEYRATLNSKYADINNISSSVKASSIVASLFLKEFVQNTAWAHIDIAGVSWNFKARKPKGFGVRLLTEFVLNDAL

[7] = target: T4, RNA-binding protein pos-1 (Caenorhabditis elegans, UniProt G5EF15); test: disruptors of C. elegans POS-1 RNA interaction – biochemical, fluorescence polarization, dose response (AID 1964);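 also: purified POS-1 fused to maltose binding protein made in E. coli; potency of compounds blocking POS-1 binding to fluorescent RNA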
T4 sequence (G5EF15 whole entry): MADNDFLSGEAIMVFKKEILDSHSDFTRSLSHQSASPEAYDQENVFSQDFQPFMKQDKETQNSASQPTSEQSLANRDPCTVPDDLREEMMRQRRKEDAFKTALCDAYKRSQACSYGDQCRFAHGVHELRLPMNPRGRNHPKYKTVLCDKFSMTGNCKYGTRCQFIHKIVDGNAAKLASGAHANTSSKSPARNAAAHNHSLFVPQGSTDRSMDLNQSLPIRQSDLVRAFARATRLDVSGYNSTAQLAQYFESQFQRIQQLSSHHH

[8] = test system: INS1; test: INS-1E survival protection against cytokine death – cell-based, luminescence, retest, dose response (AID 449756); type: functional; settings: Rattus norvegicus;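 also: cell death triggered by IL-1 beta plus TNF-alpha plus IFN-gamma mixture; protective hits raise ATP signal compared with cytokine alone wells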
[9] = HIV-1 AD8 envelope cell-cell fusion blockers – cherry-pick, dose response (AID 652062); type: functional, cell-based;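 also: luciferase signal from cell-cell fusion driven by HIV-1 clade B AD8 Env; potency is for inhibitors of fusion seen as a drop in luminescence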
[10] = viability of PTEN-deleted HCT116 cells – cell-based, HCT116 PTEN knockout, dose response (AID 1047); type: functional;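 also: HCT116 colon tumor cells with PTEN knocked out; cells exposed to compound for 60 hours before readout; potency for loss of cell viability measured by luminescence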
[11] = NIH-3T3 fibroblast cytotoxicity, dose response, cytotoxicity control, cell-based, fluorescence, Alamar Blue, secondary assay (AID 2327); type: functional;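 also: NIH-3T3 mouse fibroblasts cultured with fluconazole at 8 µg/mL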
[12] = fluconazole-exposed Candida albicans growth modulators – fluorescence, retest, confirmation (AID 2467); type: functional, cell-based
[13] = viability of HCT116 lacking mutant beta-catenin – cell-based, human colon tumor, dose response (AID 1045); type: functional;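 also: HCT116 colon tumor cells with beta catenin knocked out; cells exposed to compound for 60 hours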
[14] = target: Nonstructural protein 1 (Influenza A virus, UniProt Q194T2); type: functional, Influenza A virus (A/California/07/2009(H1N1))
[15] = HEK-293T viability loss after treatment – luminescence, T-cell screen hits, cytotoxicity control for TCR NF-kB inhibitor project, dose response (AID 489026); type: functional, cell-based;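 also: cells exposed to compound about 14 hours before the viability readout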

Chain of FAD-linked sulfhydryl oxidase ALR (P55789 whole entry): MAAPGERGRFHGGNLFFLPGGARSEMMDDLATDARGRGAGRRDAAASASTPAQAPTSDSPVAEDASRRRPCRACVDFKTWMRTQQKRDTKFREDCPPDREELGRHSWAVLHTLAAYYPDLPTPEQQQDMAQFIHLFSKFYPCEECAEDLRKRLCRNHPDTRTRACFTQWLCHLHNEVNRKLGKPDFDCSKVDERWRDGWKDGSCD
T2 sequence (P11940 whole entry, the tested form may be a part): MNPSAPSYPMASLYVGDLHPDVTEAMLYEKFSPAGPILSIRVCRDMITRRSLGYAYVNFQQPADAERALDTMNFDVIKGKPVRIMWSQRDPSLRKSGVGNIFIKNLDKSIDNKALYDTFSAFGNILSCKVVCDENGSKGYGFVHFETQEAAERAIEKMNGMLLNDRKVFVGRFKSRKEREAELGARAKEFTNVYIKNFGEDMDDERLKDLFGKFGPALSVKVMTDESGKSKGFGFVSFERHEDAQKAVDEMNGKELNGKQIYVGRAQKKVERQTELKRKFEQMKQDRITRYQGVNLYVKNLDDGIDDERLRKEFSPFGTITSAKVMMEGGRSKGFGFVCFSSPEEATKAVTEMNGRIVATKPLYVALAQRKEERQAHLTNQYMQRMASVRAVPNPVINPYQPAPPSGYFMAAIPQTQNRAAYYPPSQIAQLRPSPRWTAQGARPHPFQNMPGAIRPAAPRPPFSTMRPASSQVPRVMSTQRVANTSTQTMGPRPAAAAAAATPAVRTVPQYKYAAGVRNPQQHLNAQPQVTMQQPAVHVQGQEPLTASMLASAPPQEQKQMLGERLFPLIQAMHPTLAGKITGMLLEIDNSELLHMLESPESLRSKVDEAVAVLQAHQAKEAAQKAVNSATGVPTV
Chain of Nonstructural protein 1 (Q194T2 whole entry): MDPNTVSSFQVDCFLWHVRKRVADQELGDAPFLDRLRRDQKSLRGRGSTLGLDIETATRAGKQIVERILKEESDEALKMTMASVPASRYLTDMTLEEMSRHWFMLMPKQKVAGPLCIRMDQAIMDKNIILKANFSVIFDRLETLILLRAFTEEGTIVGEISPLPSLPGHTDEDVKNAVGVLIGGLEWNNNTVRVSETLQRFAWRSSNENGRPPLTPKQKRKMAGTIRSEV

COc1ccc(-c2sc3cc4c(cc3c2C#CC2(N)CCCCC2)OCO4)cc1
IC50 [1]: > 20 µM (inactive)
AC50 [2]: 1.48 µM (active)

O=C(NC(=S)Nc1cccc(Cl)c1N1CCOCC1)c1cccs1
IC50 [3]: > 66 µM (inactive)
IC50 [4]: > 66 µM (inactive)

Cc1ccn2cc(-c3cccc(NC(=O)CCC(=O)O)c3)nc2c1
AC50 [5]: 0.618 µM (active)

COc1cc(O)c(C(CCN2CCCCC2)c2ccc(N(C)C)cc2)c(OC)c1 (centres undefined)
AC50 [5]: 1.83 µM (active)

O=C(c1ccc2c(c1)OCO2)N1CCN=C1SCc1cccnc1
AC50 [5]: 0.076 µM (active)

O=C(O)C12CC3CC(C1)CC(n1ncc(NCc4ccccc4)c(Cl)c1=O)(C3)C2
IC50 [6]: 90 µM (active)

Cc1cc2ncn(-c3ncccc3[N+](=O)[O-])c2cc1C
IC50 [3]: > 66 µM (inactive)
IC50 [4]: > 66 µM (inactive)

CCOc1ccc(NC(=O)C2CC=CCC2C(=O)O)cc1 (centres undefined)
IC50 [6]: 10.5 µM (active)

CC(=O)Nc1ccc(S(=O)(=O)NNC(=O)C(=O)NNc2ccccn2)cc1
IC50 [1]: > 20 µM (inactive)
EC50 [7]: > 300 µM (not active)

Cc1ccccc1OCCCCn1cnc2ccccc21
AC50 [8]: 6.87 µM (active)
AC50 [9]: 4.16 µM (active)

O=[N+]([O-])c1ccc2[nH]c3c(c2c1)CCCC3
AC50 [5]: 15.6 µM (active)

COc1cc(/C=C/C(=O)Nc2nnc(CC(C)(C)C)s2)cc(OC)c1OC
IC50 [3]: > 66 µM (inactive)
IC50 [4]: > 66 µM (inactive)

Cc1ccccc1C(=O)Nc1nnc(-c2ccc(F)cc2)o1
EC50 [10]: 18.4 µM (active)
EC50 [11]: > 150 µM (inactive)
EC50 [12]: 1.25 µM (active)
EC50 [13]: 16.6 µM (active)

CCOc1ccc(NC(=O)CSc2nnc(CCNC(=O)c3ccc(OC)cc3)n2CC)cc1
IC50 [6]: 8.71 µM (active)

CCN1C(=O)C(=Cc2ccc(C)s2)C(=O)N(CC)C1=S
EC50 [10]: 9.84 µM (active)
EC50 [13]: 31.9 µM (active)

CCOc1ccc(-c2nc(C#N)c(N3CCN(Cc4ccccc4)CC3)o2)cc1
IC50 [14]: > 100 µM (active)

Cc1oc(C(C)(C)C)cc1C(=O)NC(Cc1ccccc1)C(=O)O (centres undefined)
IC50 [6]: 12.7 µM (active)

O=C(Nc1ncc(Cc2ccc(SC(F)F)cc2)s1)c1ccc(OC(F)F)cc1
IC50 [15]: > 80 µM (inactive)
AC50 [2]: < 0.16 µM (active)
